# Data taken from patent US12685309B2, “Agrochemical formulations” (BASF CORPORATION, priority 2020, dated 2026).
# Conditions: for Appearance of mixture with water (solubility): 400 g mixed with water and stirred, 400 g/l mixture
# Description: 400 g of Dicamba with the 93.8 wt % purity as defined above in the experimental part were mixed with water and stirred to obtain a 400 g/l mixture of dicamba.
# 400 g of dicamba with a purity of 98 wt % were mixed with water.
SMILES,Appearance of mixture with water (solubility),"Stability of the aqueous mixture on storage (400 g/l mixture in water, room temperature, two weeks)"
"COc1c(Cl)ccc(Cl)c1C(=O)[O-].[K+] [Dicamba with the 93.8 wt % purity, potassium dicamba]",turbid mixture,serum formation and sedimentation of the undissolved components
"COc1c(Cl)ccc(Cl)c1C(=O)O [dicamba with a purity of 98 wt %, 3,6-dichloro-2-methoxybenzoic acid]",clear solution,–
